85 molecules from PubChem BioAssay AID588780 (Sanford-Burnham Center for Chemical Genomics, 2011) can be followed below.

The structures appear in SMILES notation. Active and inactive are the calls of the source.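 Rule for the calls: active = compounds whose fitted half-maximal concentration in the cell-protection dose series is at or below a set limit; inactive = the rest.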

The test relates to H9c2 cardiomyocytes, 2-deoxyglucose stress, ATP luminescence, 2 h. Briefly: protection of cardiomyocytes from 2-deoxyglucose injury, dose response, cell-based, 2-deoxyglucose stress, uHTS hits (AID 588780).
Regarding `CCOc1ccc(NC(=O)c2cc3c(=O)n(C)c4ccccc4c3n2C)cc1`, the IC50 was 11.5 µM. Regarding `Cc1[nH]c(-c2ccccn2)nc(=S)c1Cl`, the IC50 is > 79 µM (inactive).

Take `COc1ccc(-c2nnc(NC(=O)c3ccc(F)cc3)o2)cc1`: the IC50 is > 79 µM (inactive). Regarding `Cc1nc2c(c(=O)n1CCC1=CCCCC1)c1nc3ccccc3nc1n2/N=C/c1ccccc1`, the IC50 was 11.7 µM.

In the case of `O=C(COC(=O)Cn1[nH]c(=O)c2ccccc2c1=O)NNC(=O)c1ccc(Br)cc1`, the IC50 was > 79 µM (inactive). The result for `Cc1cnc(NC(=O)CSc2nc3ccccc3c(=O)[nH]2)s1` reads > 79 µM (inactive); that for `O=C(COc1ccccc1F)Nc1nc(-c2ccccn2)cs1`, > 79 µM (inactive); that for `Cn1c(=O)c2[nH]c(NN=Cc3cccc(Br)c3)nc2n(C)c1=O`, > 79 µM (inactive).

With `Cc1c(O)ccc2c(-c3ccccc3)cc(=O)oc12`, the IC50 was 24.5 µM. Consider `O=C(Nc1cccc(-c2nc3cccnc3s2)c1)c1ccco1`, for which the IC50 was > 79 µM (inactive). With `O=C(CCS(=O)(=O)c1ccccc1)Nc1nc(-c2ccccn2)cs1`, the IC50 was 31.3 µM (inactive). The result for `Cc1ccc2c(C)nc(Nc3nc(CSc4nc5ccccc5[nH]4)cc(=O)[nH]3)nc2c1` reads > 79 µM (inactive); that for `Cc1sc2nc(SCC(=O)NCc3ccco3)[nH]c(=O)c2c1C`, > 79 µM (inactive); that for `Oc1ccc(Cl)cc1C=Nc1ccc2c3c(cccc13)CC2`, > 79 µM (inactive).

Turning to `NC(=O)c1ccsc1NC(=O)COC(=O)Cc1n[nH]c(=O)c2ccccc12`, the IC50 was > 79 µM (inactive). Take `COc1cc(C(=O)NCC(=O)N/N=C/c2ccc(-c3cccc([N+](=O)[O-])c3)o2)cc(OC)c1OC`: the IC50 was 12.5 µM. Turning to `CCC1(C)Cc2c(sc3nc(NN)n(C)c(=O)c23)CO1` (stereo not given), the IC50 is > 79 µM (inactive). `COc1cccc(NC(=O)COc2cccc3c2CCNC3=O)c1`: the IC50 is 54.5 µM (inactive). For the molecule `CC(C)(C)OC(=O)NCc1ccc(NC(=O)c2nc[nH]c2C(=O)NCCCCCCNC(=O)c2[nH]cnc2C(=O)Nc2ccc(CNC(=O)OC(C)(C)C)cc2)cc1`, the IC50 is > 79 µM (inactive). For the molecule `COc1cccc(Nc2nc(-c3sc(NC(=O)c4ccco4)nc3C)cs2)c1`, the IC50 was > 79 µM (inactive). On to `O=C(Nc1cccc(NC(=O)c2ccc([N+](=O)[O-])o2)c1)c1ccco1`, for which the IC50 was > 79 µM (inactive).

For the molecule `COc1ccc(C(=O)COC(=O)Cn2[nH]c(=O)c3ccccc3c2=O)c(OC)c1`, the IC50 was > 79 µM (inactive). With `O=C(N/N=C\c1ccccn1)C1COc2cc3ccccc3cc2O1` (stereo not given), the 50% inhibitory concentration (IC50) was 8.87 µM. On to `COc1ccc(NC(=O)c2oc3ccc(S(=O)(=O)N4CCOCC4)cc3c2C)cc1`, for which the IC50 is > 79 µM (inactive). In the case of `COC(=O)c1ccc(C(NC(=O)OCc2ccccc2)/C(C)=C/[C@@H](C)C(=O)NCc2ccc(OC)c(OC)c2)cc1` (stereo not given in full), the IC50 was 22.8 µM. For `CCOc1ccc(C(C(=O)NCC2CCCO2)N(C(=O)c2snc(C(N)=O)c2N)c2ccccc2F)cc1` (stereo not given), the IC50 was 20.6 µM. Then `Nc1nonc1-n1nnc(C(=O)N/N=C/c2ccccn2)c1CNc1ccccc1`, with 37.7 µM (inactive).

For the molecule `Cc1nc(OCc2ccccc2)c2ccccc2n1`, the IC50 was 9.43 µM.

In the case of `COCCn1nnnc1C(C(C)C)N(Cc1cccnc1)Cc1cc2cc(OC)ccc2[nH]c1=O` (stereo not given), the IC50 is > 79 µM (inactive). Consider `COc1ccccc1NC(=O)COc1ccc(C(=O)OCC(=O)NC(C)(C)C)cc1OC`, for which the IC50 is 17.6 µM. Regarding `COC(=O)c1cc(NC(=O)c2cc3ccccc3o2)cc(C(=O)OC)c1`, the IC50 was 20.5 µM. Then `Cc1[nH]c2ccccc2c1/C=N/NC(=O)c1cc(-c2cccs2)[nH]n1`, with > 79 µM (inactive); and `CCn1c(=O)cc(OCC(=O)Nc2ccccc2C#N)c2ccccc21`, with > 79 µM (inactive).

On to `O=C(Cn1[nH]c(=O)c2ccccc2c1=O)NNC(=O)c1ccccc1`, for which the IC50 is 9.4 µM. As to `O=C(Nc1ccc(C(=O)N2CCOCC2)cc1)c1cnn2c(C(F)F)cc(-c3ccccc3)nc12`, the IC50 is > 79 µM (inactive). `Cc1cc(-c2nn3c(-c4ccccc4)nnc3s2)c2ccccc2n1`: the IC50 is > 79 µM (inactive). Then `CCOC(=O)C1CCN(c2cc3c(cc2NC(=O)c2ccc(F)cc2)n(C)c(=O)n3C)CC1`, with 21.2 µM; and `CS(=O)(=O)N(Cc1ccc(C(=O)NCCSc2ccccn2)cc1)c1ccccc1`, with > 79 µM (inactive); and `Cc1ccc(CNC(=O)c2oc3ccc(S(=O)(=O)N4CCOCC4)cc3c2C)cc1`, with 14.1 µM. `Cc1ccc(NC(=O)c2nc[nH]c2C(=O)NCCCCCNC(=O)OC(C)(C)C)cc1`: the IC50 was > 79 µM (inactive). Take `CN(C(=O)Cn1nc(C(=O)O)c2ccccc2c1=O)C1(C#N)CCCCC1`: the IC50 is > 79 µM (inactive). The result for `COc1cccc(CN2CCN(C(=O)c3cc(-c4cccnc4)nc4ccc(C)cc34)CC2)c1` reads 22.4 µM; that for `O=c1[nH]c2cccnc2c2ccsc12`, > 79 µM (inactive). As to `COc1cccc(C(c2nnnn2Cc2ccccc2)N2CCN(C3CCCC3)CC2)c1OC` (stereo not given), the IC50 is 35.5 µM (inactive). For `O=C(c1ccco1)N1CCN(C(=O)c2cc(-c3ccncc3)nc3ccc(Br)cc23)CC1`, the IC50 is 13.8 µM.

Turning to `C[C@H](CO)N1C[C@H](C)[C@@H](CN(C)S(=O)(=O)c2cccs2)Oc2ccc(NC(=O)Nc3ccccc3)cc2C1=O`, the IC50 is 28.2 µM. Then `CC(C)(C)OC(=O)CNC(=O)c1[nH]cnc1C(=O)NC(c1ccccc1)c1ccccc1`, with 19.2 µM; and `O=C(Nc1cccc(/C=C/c2ccccn2)c1)c1ccc(-n2cncn2)cc1`, with 42.9 µM (inactive); and `COc1ccc(-c2ccc3[nH]c4c(c3c2)CCN2C[C@H]3[C@H](C)ON(C)[C@H]3C[C@@H]42)cc1`, with 46.8 µM (inactive).

Consider `COc1ccccc1-c1cc(C(=O)N/N=C/C=C/c2ccccc2[N+](=O)[O-])c2ccccc2n1`, for which the IC50 was > 79 µM (inactive). Regarding `Cc1c(O)ccc2c3c(c(=O)oc12)CCC(C)C3` (stereo not given), the IC50 was 15.9 µM.

As for `N#CC(c1nc2ccccc2nc1N1CCCC1)S(=O)(=O)c1cccs1` (stereo not given), the IC50 was 34.1 µM (inactive). For the molecule `Cc1ccc(-c2nn3c(C)nnc3c3ccccc23)cc1S(=O)(=O)NC(C)c1ccccc1` (stereo not given), the IC50 was > 79 µM (inactive). Then `O=C1c2ccccc2NC(c2ccc(-c3ccc(Br)cc3)o2)N1O` (stereo not given), with 19 µM; and `Cc1ccccc1OCC(=O)NNC(=O)Cn1[nH]c(=O)c2ccccc2c1=O`, with > 79 µM (inactive). `O=C(N/N=C/c1ccccn1)c1ccc(NC(=O)c2cccc([N+](=O)[O-])c2)cc1`: the IC50 was 11.5 µM. Then `O=C(COc1ccccc1[N+](=O)[O-])Nc1ccc(N2CCN(C(=O)c3cccs3)CC2)cc1`, with 8.51 µM; and `Cc1cc(C)c(C)c(S(=O)(=O)N2CCC(C(=O)NNC(=O)c3ccccc3O)CC2)c1C`, with > 79 µM (inactive); and `Cc1nnc(SCC(=O)N/N=C/c2cn(-c3ccccc3)nc2-c2ccccc2)n1-c1ccccc1`, with 14 µM. `COc1cccc(C(=O)Nc2cc(C)c3c(=O)oc4ccccc4c3n2)c1`: the IC50 was > 79 µM (inactive). On to `Cc1noc(C)c1COC(=O)COc1ccc2c(C)cc(=O)oc2c1`, for which the IC50 is > 79 µM (inactive). The result for `COc1cc(C(=O)Nc2cccc(-c3nnc(-c4ccco4)o3)c2)ccc1OC(C)=O` reads > 79 µM (inactive); that for `Cc1ccc(-c2csc(NC(=O)Cn3[nH]c(=O)c4ccccc4c3=O)n2)cc1`, 13.8 µM.

Regarding `O=c1[nH]c2c(c3c1CCCC3)CCCC2`, the IC50 is > 79 µM (inactive). As to `CSc1nnc(NC(=O)c2cc3ccccc3oc2=O)s1`, the IC50 was > 79 µM (inactive). With `Cc1ccc(C)c(S(=O)(=O)N2CCN(C(=O)Cn3[nH]c(=O)c4ccccc4c3=O)CC2)c1`, the IC50 is > 79 µM (inactive). On to `Cc1csc2nc(COC(=O)c3ccc(Cl)c([N+](=O)[O-])c3)cc(=O)n12`, for which the IC50 is > 79 µM (inactive). For the molecule `COc1cc(-c2nnc(-c3ccc(N4CCOCC4)cc3)o2)cc(OC)c1OC`, the IC50 was > 79 µM (inactive).

Consider `COc1ccc(/C=N/NC(=O)c2ccn[nH]2)cc1COc1ccc(Cl)cc1`, for which the IC50 was > 79 µM (inactive). Take `O=C(N/N=C/c1ccccn1)c1cccs1`: the IC50 is > 79 µM (inactive).

As for `CC(=C/c1ccc(C(C)C)cc1)/C=N/NC(=O)c1ccncc1`, the IC50 is > 79 µM (inactive). In the case of `COc1ccc(-c2csc(NC(=O)c3cccc(N4C(=O)CCC4=O)c3)n2)cc1OC`, the IC50 was 10.6 µM. Regarding `COc1cc(NS(=O)(=O)c2ccc3ccccc3c2)c2ncccc2c1`, the IC50 was 18.2 µM. With `O=C(COC(=O)CCc1nc2ccccc2c(=O)[nH]1)NC(c1ccccc1)c1ccccc1`, the IC50 is > 79 µM (inactive). Then `O=C(CCc1nc2ccccc2c(=O)[nH]1)OCC(=O)N1CCc2ccccc21`, with > 79 µM (inactive); and `COc1cccc(/C=N/Nc2nc3ccccc3n3cnnc23)c1`, with > 79 µM (inactive); and `COc1ccc(C(=O)O/N=C(/c2ccccc2)c2ccncc2)cc1OC`, with > 79 µM (inactive). For `O=C(NNC(=O)c1ccccc1OCc1ccccc1Cl)c1csc(N2CCOCC2)n1`, the IC50 is 22.4 µM. In the case of `CC(=O)Nc1cccc(NC(=O)c2cc(-c3cccnc3)nc3ccc(Br)cc23)c1`, the IC50 was > 79 µM (inactive).

Turning to `COc1ccccc1NC(=O)CSc1ccc2nnc(-c3ccc(C)cc3)n2n1`, the IC50 was > 79 µM (inactive). As to `Cc1sc2nc(SCC(=O)N(C)C)[nH]c(=O)c2c1C`, the IC50 was > 79 µM (inactive).

With `CC(=O)OCc1nc2sc(C)c(C)c2c(=O)[nH]1`, the IC50 is > 79 µM (inactive). Turning to `CCN(CC)S(=O)(=O)c1cccc(C(=O)N/N=C/c2ccccn2)c1`, the IC50 was > 79 µM (inactive).

Regarding `CC(C)(C)OC(=O)C[C@@H]1C/C=C\C[C@@H](CC(=O)N[C@H](CO)Cc2ccccc2)C(=O)NC[C@@H](c2ccccc2)OC1=O`, the IC50 is > 79 µM (inactive). Consider `CCOc1cc(-c2cc(-c3ccc(N)cc3)nc(N)c2C#N)ccc1O`, for which the IC50 is 12.3 µM.

One may read the IC50 as the concentration needed to halve the response being measured.
